Test results from ChEMBL document CHEMBL1201862, “PubChem BioAssay data set” (2004).
The source made the active and inactive calls.

How the values were obtained:
[1] = biological target: T1, Cytochrome P450 2C9 (Homo sapiens, UniProt P11712); details: Potency
[2] = biological target: Cytochrome P450 3A4 (Homo sapiens, UniProt P08684); details: Potency;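 also: confirmatory qHTS run detecting inhibitors and substrates of CYP3A4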
[3] = Luminescence-based counterscreen assay for KLF5 inhibitors: dose response cell-based high throughput screening assay to identify cytotoxic compounds using the IEC-6 intestinal epithelial cell line. [Related pubchem assays: 1700 (Primary screen.), 1834 (Confirmation screen.), 1858 (Summary AID.), 1905 (Counterscreen.)]; assay type: functional
[4] = system: HEK293; experiment: cells; details: Homo sapiens;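 also: cells exposed to compound for 14 hours overnight before viability readout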
[5] = Luminescence Cell-Based Dose Confirmation HTS to Identify Inhibitors of Platelet Dense Granule Release. [Related pubchem assays: 1663 (Primary HTS), 1678 (Summary of Project)]; assay type: functional
[6] = cytotoxicity in HEK-293T cells, dose response, cytotoxicity control for TCR NF-kB inhibitor project, luminescence, T-cell screen hits (AID 489026); assay type: functional, cell-based;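 also: cells exposed to compound about 14 hours before the viability readout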
[7] = biological target: T2, Polyadenylate-binding protein 1 (Homo sapiens, UniProt P11940); experiment: PABP1 MLLE–PAM2 binding inhibitor potency, dose response, biochemical, fluorescence polarization, FITC-PAM2 peptide (AID 602259); assay type: functional; details: read-out: IC50_Mean
T2 sequence (P11940 whole entry, the tested form may be a part): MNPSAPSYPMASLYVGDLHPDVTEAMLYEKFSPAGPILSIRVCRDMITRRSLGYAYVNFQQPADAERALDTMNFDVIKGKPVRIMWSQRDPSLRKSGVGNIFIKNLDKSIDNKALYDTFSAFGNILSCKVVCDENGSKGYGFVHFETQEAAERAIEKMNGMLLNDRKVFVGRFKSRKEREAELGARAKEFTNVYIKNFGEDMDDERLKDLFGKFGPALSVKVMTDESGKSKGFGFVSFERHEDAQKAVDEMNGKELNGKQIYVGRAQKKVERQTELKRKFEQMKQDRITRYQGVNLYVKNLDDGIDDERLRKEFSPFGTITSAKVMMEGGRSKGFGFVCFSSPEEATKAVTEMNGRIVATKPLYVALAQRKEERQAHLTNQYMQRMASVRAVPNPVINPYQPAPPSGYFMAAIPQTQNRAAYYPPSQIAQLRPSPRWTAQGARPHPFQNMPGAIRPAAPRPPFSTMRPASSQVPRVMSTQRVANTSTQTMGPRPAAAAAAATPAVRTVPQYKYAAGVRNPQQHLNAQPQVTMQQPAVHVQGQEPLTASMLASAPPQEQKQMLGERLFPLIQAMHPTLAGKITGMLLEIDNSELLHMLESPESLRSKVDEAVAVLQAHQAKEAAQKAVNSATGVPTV

[8] = biological target: Disintegrin and metalloproteinase domain-containing protein 17 (Homo sapiens, UniProt P78536); experiment: exosite inhibitors of ADAM17, dose response, biochemical (AID 743260)
Disintegrin and metalloproteinase domain-containing protein 17, sequence (P78536 whole entry, the tested form may be a part): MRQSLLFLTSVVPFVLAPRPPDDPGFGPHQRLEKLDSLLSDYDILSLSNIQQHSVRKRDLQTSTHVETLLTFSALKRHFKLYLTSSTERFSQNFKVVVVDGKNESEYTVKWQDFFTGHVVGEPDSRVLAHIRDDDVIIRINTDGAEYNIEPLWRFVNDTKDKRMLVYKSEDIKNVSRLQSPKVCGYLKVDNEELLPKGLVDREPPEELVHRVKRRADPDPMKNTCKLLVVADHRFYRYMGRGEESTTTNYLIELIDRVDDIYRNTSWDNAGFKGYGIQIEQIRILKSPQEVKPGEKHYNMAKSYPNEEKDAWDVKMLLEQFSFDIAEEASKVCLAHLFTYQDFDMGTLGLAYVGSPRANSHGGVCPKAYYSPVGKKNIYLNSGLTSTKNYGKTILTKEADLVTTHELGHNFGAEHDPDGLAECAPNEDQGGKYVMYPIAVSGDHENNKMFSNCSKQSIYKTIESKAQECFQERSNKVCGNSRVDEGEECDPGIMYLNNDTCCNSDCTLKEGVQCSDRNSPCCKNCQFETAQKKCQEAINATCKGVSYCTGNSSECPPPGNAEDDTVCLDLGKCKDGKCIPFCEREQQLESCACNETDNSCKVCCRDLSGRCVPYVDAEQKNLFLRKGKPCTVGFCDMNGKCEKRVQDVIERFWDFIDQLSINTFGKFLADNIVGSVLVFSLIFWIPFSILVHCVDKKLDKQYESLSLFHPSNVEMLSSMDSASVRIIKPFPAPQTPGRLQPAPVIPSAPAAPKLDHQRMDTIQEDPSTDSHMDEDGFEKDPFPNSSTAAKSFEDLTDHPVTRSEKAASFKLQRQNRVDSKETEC

[9] = biological target: Nonstructural protein 1 (Influenza A virus, UniProt Q194T2); assay type: functional, Influenza A virus (A/California/07/2009(H1N1))
Nonstructural protein 1, sequence (Q194T2 whole entry): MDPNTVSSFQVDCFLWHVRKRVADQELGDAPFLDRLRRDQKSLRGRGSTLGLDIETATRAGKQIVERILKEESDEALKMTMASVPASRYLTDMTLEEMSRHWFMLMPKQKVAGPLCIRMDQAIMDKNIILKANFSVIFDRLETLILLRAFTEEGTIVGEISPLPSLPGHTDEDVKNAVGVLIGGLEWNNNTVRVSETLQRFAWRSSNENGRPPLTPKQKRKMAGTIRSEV

[10] = system: INS1; experiment: beta cell apoptosis inhibitors, cytokine rescue, dose response, luminescence, retest (AID 449756); assay type: functional, cell-based; details: Rattus norvegicus;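 also: cell death triggered by IL-1 beta plus TNF-alpha plus IFN-gamma mixture; protective hits raise ATP signal compared with cytokine alone wells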
[11] = biological target: T2, Polyadenylate-binding protein 1; experiment: PABP1 MLLE–PAM2 interaction inhibitors, dose response, miRNA deadenylation inhibitor project, biochemical, fluorescence polarization, Cy5-PAM2 peptide, secondary (AID 602260); assay type: functional; details: read-out: IC50_Mean
[12] = system: Streptococcus sp. 'group A'; experiment: growth inhibition of control SK(-) GAS strain, dose response, counter-screen for streptokinase expression inhibitor project, luminescence, kanamycin, BacTiterGlo, confirmation (AID 1900); assay type: functional, organism-based
[13] = biological target: Heat shock protein HSP 90-alpha (Homo sapiens, UniProt P07900); assay type: functional, organism-based
[14] = system: Streptococcus; experiment: Group A Streptococcus viability loss, dose response, counter-screen for streptokinase expression inhibitor project, luminescence, BacTiterGlo (AID 1915); assay type: functional, organism-based;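 also: potency for reduction of bacterial viability or growth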
[15] = ADAM10 protease inhibitors, dose response, selectivity assay for ADAM17 exosite inhibitor project, biochemical, FRET peptide substrate, recombinant human ADAM10 (AID 743259);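 also: ADAM10 enzyme cleaving a FRET peptide substrate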
[16] = system: Vero; experiment: Vero cell cytotoxicity, cytotoxicity control for flavivirus capping enzyme inhibitors (AID 588742); assay type: functional; details: Chlorocebus sabaeus
[17] = biological target: T3, Protein RecA (Mycobacterium tuberculosis, UniProt P9WHJ3); experiment: Fluorescence Cell-Free Homogeneous Dose Retest to Identify Inhibitors of RecA-Intein Splicing Activity. [Related pubchem assays (depositor defined):AID2097, AID2223, AID489010, AID492950]; assay type: functional
T3 sequence (P9WHJ3 whole entry): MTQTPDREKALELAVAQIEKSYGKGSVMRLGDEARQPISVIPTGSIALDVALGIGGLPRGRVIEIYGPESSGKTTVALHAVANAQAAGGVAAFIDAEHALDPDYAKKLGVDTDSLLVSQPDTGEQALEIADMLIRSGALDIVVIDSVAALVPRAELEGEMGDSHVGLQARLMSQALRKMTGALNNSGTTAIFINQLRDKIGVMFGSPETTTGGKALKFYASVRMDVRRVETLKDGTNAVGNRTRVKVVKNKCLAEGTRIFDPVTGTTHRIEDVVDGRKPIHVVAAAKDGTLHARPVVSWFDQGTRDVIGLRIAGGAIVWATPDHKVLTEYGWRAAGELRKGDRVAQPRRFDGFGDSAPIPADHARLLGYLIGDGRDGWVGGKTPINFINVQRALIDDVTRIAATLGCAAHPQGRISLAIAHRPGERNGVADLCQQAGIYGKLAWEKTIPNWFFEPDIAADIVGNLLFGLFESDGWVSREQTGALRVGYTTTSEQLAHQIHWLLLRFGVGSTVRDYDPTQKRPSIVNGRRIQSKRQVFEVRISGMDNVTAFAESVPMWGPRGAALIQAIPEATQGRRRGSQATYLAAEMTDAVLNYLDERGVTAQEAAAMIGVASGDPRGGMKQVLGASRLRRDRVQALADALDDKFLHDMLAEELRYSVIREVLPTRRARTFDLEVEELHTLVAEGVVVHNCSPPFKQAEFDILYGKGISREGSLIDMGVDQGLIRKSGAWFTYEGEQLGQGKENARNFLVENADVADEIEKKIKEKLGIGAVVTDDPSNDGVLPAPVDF

[18] = biological target: T4, Mannose-6-phosphate isomerase (Homo sapiens, UniProt P34949); experiment: inhibitors of human PMI, primary screen, biochemical, fluorescence intensity, coupled assay (AID 1209)
T4 sequence (P34949 whole entry): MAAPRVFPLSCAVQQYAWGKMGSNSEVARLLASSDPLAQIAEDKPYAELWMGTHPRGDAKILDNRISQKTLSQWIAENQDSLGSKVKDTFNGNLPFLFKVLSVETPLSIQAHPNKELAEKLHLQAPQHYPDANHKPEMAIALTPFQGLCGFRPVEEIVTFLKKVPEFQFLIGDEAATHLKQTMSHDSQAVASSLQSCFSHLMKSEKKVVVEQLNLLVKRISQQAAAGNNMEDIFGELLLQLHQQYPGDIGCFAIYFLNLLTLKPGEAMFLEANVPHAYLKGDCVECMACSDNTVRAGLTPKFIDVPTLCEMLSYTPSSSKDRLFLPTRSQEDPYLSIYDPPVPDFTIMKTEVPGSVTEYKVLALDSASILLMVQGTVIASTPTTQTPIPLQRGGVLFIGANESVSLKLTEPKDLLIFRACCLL

[19] = biological target: T4, Mannose-6-phosphate isomerase; experiment: human PMI inhibitors, high substrate, primary screen, biochemical, fluorescence intensity, high mannose 6-phosphate (AID 1220)
[20] = biological target: T5, Apoptotic protease-activating factor 1 (Homo sapiens, UniProt O14727); assay type: functional
T5 sequence (O14727 whole entry): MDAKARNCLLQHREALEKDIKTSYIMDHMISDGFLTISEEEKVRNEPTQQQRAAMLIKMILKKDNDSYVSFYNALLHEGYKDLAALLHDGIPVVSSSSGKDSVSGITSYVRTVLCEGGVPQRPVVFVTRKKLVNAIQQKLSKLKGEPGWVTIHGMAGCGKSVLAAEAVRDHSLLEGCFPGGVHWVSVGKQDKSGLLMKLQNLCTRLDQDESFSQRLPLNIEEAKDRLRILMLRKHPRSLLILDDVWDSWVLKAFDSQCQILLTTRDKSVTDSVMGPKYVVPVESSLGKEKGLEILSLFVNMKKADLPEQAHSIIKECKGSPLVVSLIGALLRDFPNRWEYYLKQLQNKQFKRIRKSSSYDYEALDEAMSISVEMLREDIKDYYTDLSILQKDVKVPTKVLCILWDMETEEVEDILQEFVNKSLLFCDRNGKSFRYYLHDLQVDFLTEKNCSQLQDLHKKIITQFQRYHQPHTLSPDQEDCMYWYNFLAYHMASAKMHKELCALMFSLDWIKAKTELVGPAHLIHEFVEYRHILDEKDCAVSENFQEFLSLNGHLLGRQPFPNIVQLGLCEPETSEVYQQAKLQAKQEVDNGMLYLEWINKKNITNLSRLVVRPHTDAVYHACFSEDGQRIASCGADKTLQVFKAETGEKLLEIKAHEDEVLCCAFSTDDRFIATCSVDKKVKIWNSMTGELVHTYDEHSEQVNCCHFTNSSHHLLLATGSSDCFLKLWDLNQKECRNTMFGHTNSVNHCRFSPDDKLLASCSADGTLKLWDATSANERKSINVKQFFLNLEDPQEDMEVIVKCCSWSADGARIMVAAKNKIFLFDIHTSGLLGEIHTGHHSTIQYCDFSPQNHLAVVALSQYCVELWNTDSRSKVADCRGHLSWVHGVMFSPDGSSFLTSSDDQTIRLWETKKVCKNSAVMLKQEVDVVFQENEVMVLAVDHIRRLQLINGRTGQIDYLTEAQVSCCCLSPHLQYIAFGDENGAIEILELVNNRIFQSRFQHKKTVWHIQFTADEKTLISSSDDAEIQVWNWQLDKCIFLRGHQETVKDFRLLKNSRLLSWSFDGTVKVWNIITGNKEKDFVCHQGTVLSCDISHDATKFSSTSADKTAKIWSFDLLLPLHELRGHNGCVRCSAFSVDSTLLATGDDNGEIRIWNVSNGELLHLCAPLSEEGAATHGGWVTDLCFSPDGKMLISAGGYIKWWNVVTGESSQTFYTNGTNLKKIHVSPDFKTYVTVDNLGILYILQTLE

[21] = biological target: T1, Cytochrome P450 2C9

T1 sequence (P11712 whole entry): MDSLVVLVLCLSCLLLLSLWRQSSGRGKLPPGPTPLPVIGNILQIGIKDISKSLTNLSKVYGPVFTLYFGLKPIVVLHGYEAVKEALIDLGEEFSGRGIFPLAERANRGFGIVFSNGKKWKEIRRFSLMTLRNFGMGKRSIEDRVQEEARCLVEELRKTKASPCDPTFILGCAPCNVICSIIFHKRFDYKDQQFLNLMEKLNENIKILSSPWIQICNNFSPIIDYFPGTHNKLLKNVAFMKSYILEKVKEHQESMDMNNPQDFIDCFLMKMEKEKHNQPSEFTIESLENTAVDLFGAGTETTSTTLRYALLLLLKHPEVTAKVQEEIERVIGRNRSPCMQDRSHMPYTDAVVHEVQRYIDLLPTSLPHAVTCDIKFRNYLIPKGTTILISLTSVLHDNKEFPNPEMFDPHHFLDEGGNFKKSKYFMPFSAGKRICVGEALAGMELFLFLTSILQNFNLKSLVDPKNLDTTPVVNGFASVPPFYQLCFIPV
Cytochrome P450 3A4, sequence (P08684 whole entry): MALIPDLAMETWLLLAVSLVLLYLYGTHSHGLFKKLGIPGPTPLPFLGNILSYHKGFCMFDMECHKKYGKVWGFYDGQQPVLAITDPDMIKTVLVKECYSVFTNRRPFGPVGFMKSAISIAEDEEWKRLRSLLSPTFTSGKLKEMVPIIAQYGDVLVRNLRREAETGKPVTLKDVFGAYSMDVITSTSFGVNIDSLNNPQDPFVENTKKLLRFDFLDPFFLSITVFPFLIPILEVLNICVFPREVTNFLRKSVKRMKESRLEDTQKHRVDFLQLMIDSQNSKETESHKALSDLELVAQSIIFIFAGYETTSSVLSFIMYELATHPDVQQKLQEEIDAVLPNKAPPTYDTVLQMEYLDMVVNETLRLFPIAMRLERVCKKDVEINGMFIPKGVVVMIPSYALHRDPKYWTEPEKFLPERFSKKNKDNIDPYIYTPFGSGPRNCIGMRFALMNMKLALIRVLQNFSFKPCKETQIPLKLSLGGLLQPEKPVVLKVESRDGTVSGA

In the case of `OCC1OC(c2ccc3c(c2)OCO3)C=CC1Oc1cc(Cl)cc(Cl)c1` (centres undefined), the AC50 [1] was 3.98 µM (inconclusive).

With `COC(=O)[C@@H]1C[C@@]2(O)[C@H](O)[C@H](O)[C@H](O)C[C@H]2N1Cc1ccc(-c2ccccc2)cc1` the AC50 [2] was 15.8 µM (inconclusive).

With `CC(C)(C)c1ccc(C(=O)O/N=C(\N)c2ccccc2)cc1` the IC50 [3] was 5.77 µM (active), the IC50 [4] was 5.99 µM (active) and the EC50 [5] was 4.8 µM (active). The IC50 [6] was > 80 µM (inactive).

For `Cc1ccc(S(=O)(=O)Nc2cc(Cl)c(O)c3ncccc23)cc1`, the IC50 [7] was > 66 µM (inactive), the IC50 [8] was 21.2 µM (inactive) and the IC50 [3] was 4.8 µM (active). For the same molecule, the IC50 [9] was 11.5 µM (active), the AC50 [10] was 2.4 µM (active) and the IC50 [11] was > 66 µM (inactive). For the same molecule, the EC50 [12] was 8.9 µM (active), the AC50 [13] was 2.38 µM (active) and the EC50 [14] was 9.72 µM (active). For the same molecule, the IC50 [15] was 11.1 µM (inactive) and the CC50 [16] was 5.28 µM (active).

With `c1cc2cn[nH]c2cc1NC1CCCCCC1` the EC50 [17] was 8.81 µM (active), the IC50 [18] was > 50 µM (not active) and the IC50 [19] was > 50 µM (not active). For the same molecule, the IC50 [20] was 1.94 µM (active).

With `CC(C)(C)c1ccc(S(=O)(=O)/C=C\C#N)cc1` the AC50 [1] was 2.51 µM (inconclusive) and the AC50 [21] was 7.94 µM (inconclusive).

With `COc1cc(O)c(C(=O)c2ccccc2)cc1O` [CEAROIN] the AC50 [2] was 0.794 µM (inconclusive).
